The conditions of series [1]: 101.3 kPa, Liquid; for viscosity: Capillary tube (Ostwald / Ubbelohde) method; for mass density: Pycnometric method.
Series [2] can be described thus: xn = mol fraction of the nth substance listed. As to conditions: 101.3 kPa, Liquid, x1 = 1; for viscosity: Capillary tube (Ostwald / Ubbelohde) method; for mass density: Pycnometric method.

Numbers after ± are expanded uncertainties.

As a reminder, the viscosity is the resistance of a fluid to flow. In general, mass density refers to the mass of a sample divided by its volume.

Consider `Nc1ccccc1` [aniline], for which the viscosity in series [1] (298.15 K) was found to be 3.69 ± 0.028 mPa·s; in series [1] (303.15 K), 3.19 ± 0.024 mPa·s; in series [1] (308.15 K) it was 2.8 ± 0.021 mPa·s; in series [1] (313.15 K) it was 2.42 ± 0.018 mPa·s. Moreover, the mass density in series [1] (298.15 K) is on record as 1017.2 ± 0.6 kg/m3; in series [1] (303.15 K), 1012.9 ± 0.6 kg/m3; in series [1] (308.15 K), 1008.6 ± 0.6 kg/m3; in series [1] (313.15 K), 1004.2 ± 0.6 kg/m3.

In the case of `N#Cc1ccccc1` [benzonitrile], the viscosity in series [1] (298.15 K) is 1.171 ± 0.009 mPa·s; in series [1] (303.15 K), 1.126 ± 0.009 mPa·s; in series [1] (308.15 K), 1.068 ± 0.009 mPa·s; in series [1] (313.15 K), 1.001 ± 0.008 mPa·s. In addition, the mass density in series [1] (298.15 K) turned out to be 1000.9 ± 0.6 kg/m3; in series [1] (303.15 K), 996.4 ± 0.6 kg/m3; in series [1] (308.15 K) it was 991.9 ± 0.6 kg/m3; in series [1] (313.15 K), 987.2 ± 0.6 kg/m3.

As to `CN(C)C=O` [dimethylformamide], the viscosity is listed as 0.803 ± 0.006 mPa·s in series [1] (298.15 K), 0.756 ± 0.005 mPa·s in series [1] (303.15 K), 0.71 ± 0.005 mPa·s in series [1] (308.15 K) and 0.673 ± 0.005 mPa·s in series [1] (313.15 K). Further, the mass density in series [1] (298.15 K) was 944.5 ± 0.3 kg/m3; in series [1] (303.15 K), 939.8 ± 0.3 kg/m3; in series [1] (308.15 K), 935.1 ± 0.3 kg/m3; in series [1] (313.15 K), 930.2 ± 0.3 kg/m3.

On to `CN(C)C=O` [dimethylformamide] + N#Cc1ccccc1, for which the viscosity in series [2] (298.15 K) worked out at 0.803 ± 0.006 mPa·s; in series [2] (303.15 K), 0.756 ± 0.005 mPa·s; in series [2] (308.15 K), 0.71 ± 0.005 mPa·s; in series [2] (313.15 K), 0.673 ± 0.005 mPa·s. Besides, the mass density came to 944.5 ± 0.3 kg/m3 in series [2] (298.15 K), 939.8 ± 0.3 kg/m3 in series [2] (303.15 K), 935.1 ± 0.3 kg/m3 in series [2] (308.15 K) and 930.2 ± 0.3 kg/m3 in series [2] (313.15 K).

As to `CN(C)C=O` [dimethylformamide] + Nc1ccccc1, the viscosity was found to be 0.803 ± 0.006 mPa·s in series [2] (298.15 K), 0.756 ± 0.005 mPa·s in series [2] (303.15 K), 0.71 ± 0.005 mPa·s in series [2] (308.15 K) and 0.673 ± 0.005 mPa·s in series [2] (313.15 K). Also, the mass density in series [2] (298.15 K) came out at 944.5 ± 0.3 kg/m3; in series [2] (303.15 K) it was 939.8 ± 0.3 kg/m3; in series [2] (308.15 K) it was 935.1 ± 0.3 kg/m3; in series [2] (313.15 K), 930.2 ± 0.3 kg/m3.
